{
  "source": "PubChem BioAssay AID1963840",
  "about": "(Molecular Pharmacology Branch, DTP, NCI, 2024);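 further: spheroids exposed to compounds for seven days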;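 on viability, T/C: 100% = DMSO vehicle control viability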",
  "tested_on": "695427-040-R-J1-PDC complex spheroid viability",
  "assay": "Anticancer human tumor 695427-040-R-J1-PDC patient-derived colon adenocarcinoma cell line growth inhibition [POLQ]",
  "settings": "for IC50: curve of first compound; for viability, T/C: stronger effect = lower value",
  "in_short": "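PDC + HUVEC + MSC complex spheroids; POLQ inhibitors ± partner drugs; top conc. at/near clinical Cmax, else 10 microM (SN-38 1 microM), half-log dilutions; 37 degrees C, 5% CO2.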",
  "data": [
    {"smiles": "CC(=O)O[C@H]1C(=O)[C@@]2(C)[C@H]([C@H](OC(=O)c3ccccc3)[C@]3(O)C[C@H](OC(=O)[C@H](O)[C@@H](NC(=O)c4ccccc4)c4ccccc4)C(C)=C1C3(C)C)[C@]1(OC(C)=O)CO[C@@H]1C[C@@H]2O", "note": "+ Nc1ccc(C#CCN(C(=O)Cc2ncc(C(F)(F)F)cc2C(F)(F)F)c2ccc(F)cc2)nn1", "values": [
      {"measurement": "IC50", "setting": "second compound 0.0316 µM", "value": "> 3", "unit": "µM"},
      {"measurement": "IC50", "setting": "second compound 0.1 µM", "value": "> 3", "unit": "µM"},
      {"measurement": "IC50", "setting": "second compound 0.316 µM", "value": "> 3", "unit": "µM"},
      {"measurement": "IC50", "setting": "second compound 1 µM", "value": "> 3", "unit": "µM"},
      {"measurement": "IC50", "setting": "second compound 3.16 µM", "value": "> 3", "unit": "µM"},
      {"measurement": "IC50", "setting": "second compound 10 µM", "value": "> 3", "unit": "µM"},
      {"measurement": "viability, T/C", "setting": "second compound 0.0316 µM, first compound 0.00949 µM", "value": 98.2, "unit": "%"},
      {"measurement": "viability, T/C", "setting": "second compound 0.0316 µM, first compound 0.03 µM", "value": 93.4, "unit": "%"},
      {"measurement": "viability, T/C", "setting": "second compound 0.0316 µM, first compound 0.0949 µM", "value": 93.3, "unit": "%"},
      {"measurement": "viability, T/C", "setting": "second compound 0.0316 µM, first compound 0.3 µM", "value": 97.1, "unit": "%"},
      {"measurement": "viability, T/C", "setting": "second compound 0.0316 µM, first compound 0.949 µM", "value": 97.9, "unit": "%"},
      {"measurement": "viability, T/C", "setting": "second compound 0.0316 µM, first compound 3 µM", "value": 81.2, "unit": "%"},
      {"measurement": "viability, T/C", "setting": "second compound 0.1 µM, first compound 0.00949 µM", "value": 99.9, "unit": "%"},
      {"measurement": "viability, T/C", "setting": "second compound 0.1 µM, first compound 0.03 µM", "value": 99.6, "unit": "%"},
      {"measurement": "viability, T/C", "setting": "second compound 0.1 µM, first compound 0.0949 µM", "value": 91.8, "unit": "%"},
      {"measurement": "viability, T/C", "setting": "second compound 0.1 µM, first compound 0.3 µM", "value": 91.5, "unit": "%"},
      {"measurement": "viability, T/C", "setting": "second compound 0.1 µM, first compound 0.949 µM", "value": 89.5, "unit": "%"},
      {"measurement": "viability, T/C", "setting": "second compound 0.1 µM, first compound 3 µM", "value": 79.7, "unit": "%"},
      {"measurement": "viability, T/C", "setting": "second compound 0.316 µM, first compound 0.00949 µM", "value": 108, "unit": "%"},
      {"measurement": "viability, T/C", "setting": "second compound 0.316 µM, first compound 0.03 µM", "value": 101, "unit": "%"},
      {"measurement": "viability, T/C", "setting": "second compound 0.316 µM, first compound 0.0949 µM", "value": 88.4, "unit": "%"},
      {"measurement": "viability, T/C", "setting": "second compound 0.316 µM, first compound 0.3 µM", "value": 91.6, "unit": "%"},
      {"measurement": "viability, T/C", "setting": "second compound 0.316 µM, first compound 0.949 µM", "value": 88.9, "unit": "%"},
      {"measurement": "viability, T/C", "setting": "second compound 0.316 µM, first compound 3 µM", "value": 90.3, "unit": "%"},
      {"measurement": "viability, T/C", "setting": "second compound 1 µM, first compound 0.00949 µM", "value": 102, "unit": "%"},
      {"measurement": "viability, T/C", "setting": "second compound 1 µM, first compound 0.03 µM", "value": 93.3, "unit": "%"},
      {"measurement": "viability, T/C", "setting": "second compound 1 µM, first compound 0.0949 µM", "value": 102, "unit": "%"},
      {"measurement": "viability, T/C", "setting": "second compound 1 µM, first compound 0.3 µM", "value": 99.3, "unit": "%"},
      {"measurement": "viability, T/C", "setting": "second compound 1 µM, first compound 0.949 µM", "value": 90.9, "unit": "%"},
      {"measurement": "viability, T/C", "setting": "second compound 1 µM, first compound 3 µM", "value": 78.8, "unit": "%"},
      {"measurement": "viability, T/C", "setting": "second compound 3.16 µM, first compound 0.00949 µM", "value": 106, "unit": "%"},
      {"measurement": "viability, T/C", "setting": "second compound 3.16 µM, first compound 0.03 µM", "value": 84.7, "unit": "%"},
      {"measurement": "viability, T/C", "setting": "second compound 3.16 µM, first compound 0.0949 µM", "value": 95.1, "unit": "%"},
      {"measurement": "viability, T/C", "setting": "second compound 3.16 µM, first compound 0.3 µM", "value": 90.5, "unit": "%"},
      {"measurement": "viability, T/C", "setting": "second compound 3.16 µM, first compound 0.949 µM", "value": 88.2, "unit": "%"},
      {"measurement": "viability, T/C", "setting": "second compound 3.16 µM, first compound 3 µM", "value": 86.8, "unit": "%"},
      {"measurement": "viability, T/C", "setting": "second compound 10 µM, first compound 0.00949 µM", "value": 92.7, "unit": "%"},
      {"measurement": "viability, T/C", "setting": "second compound 10 µM, first compound 0.03 µM", "value": 82.7, "unit": "%"},
      {"measurement": "viability, T/C", "setting": "second compound 10 µM, first compound 0.0949 µM", "value": 86.7, "unit": "%"},
      {"measurement": "viability, T/C", "setting": "second compound 10 µM, first compound 0.3 µM", "value": 91.2, "unit": "%"},
      {"measurement": "viability, T/C", "setting": "second compound 10 µM, first compound 0.949 µM", "value": 90.2, "unit": "%"},
      {"measurement": "viability, T/C", "setting": "second compound 10 µM, first compound 3 µM", "value": 86.4, "unit": "%"}
    ]},
    {"smiles": "COc1cccc2c1C(=O)c1c(O)c3c(c(O)c1C2=O)CC(O)(C(=O)CO)CC3OC1CC(N)C(O)C(C)O1", "note": "(centres undefined) + COC1C(OC(N)=O)C(O)C(Oc2ccc3c(O)c(NC(=O)c4ccc(O)c(CC=C(C)C)c4)c(=O)oc3c2C)OC1(C)C", "values": [
      {"measurement": "IC50", "setting": "second compound 0.0316 µM", "value": "> 10", "unit": "µM"},
      {"measurement": "IC50", "setting": "second compound 0.1 µM", "value": "> 10", "unit": "µM"},
      {"measurement": "IC50", "setting": "second compound 0.316 µM", "value": "> 10", "unit": "µM"},
      {"measurement": "IC50", "setting": "second compound 1 µM", "value": "> 10", "unit": "µM"},
      {"measurement": "IC50", "setting": "second compound 3.16 µM", "value": "> 10", "unit": "µM"},
      {"measurement": "IC50", "setting": "second compound 10 µM", "value": "> 10", "unit": "µM"},
      {"measurement": "viability, T/C", "setting": "second compound 0.0316 µM, first compound 0.0316 µM", "value": 98.1, "unit": "%"},
      {"measurement": "viability, T/C", "setting": "second compound 0.0316 µM, first compound 0.1 µM", "value": 96.5, "unit": "%"},
      {"measurement": "viability, T/C", "setting": "second compound 0.0316 µM, first compound 0.316 µM", "value": 98, "unit": "%"},
      {"measurement": "viability, T/C", "setting": "second compound 0.0316 µM, first compound 1 µM", "value": 74, "unit": "%"},
      {"measurement": "viability, T/C", "setting": "second compound 0.0316 µM, first compound 3.16 µM", "value": 68.2, "unit": "%"},
      {"measurement": "viability, T/C", "setting": "second compound 0.0316 µM, first compound 10 µM", "value": 54.5, "unit": "%"},
      {"measurement": "viability, T/C", "setting": "second compound 0.1 µM, first compound 0.0316 µM", "value": 106, "unit": "%"},
      {"measurement": "viability, T/C", "setting": "second compound 0.1 µM, first compound 0.1 µM", "value": 95.2, "unit": "%"},
      {"measurement": "viability, T/C", "setting": "second compound 0.1 µM, first compound 0.316 µM", "value": 95.1, "unit": "%"},
      {"measurement": "viability, T/C", "setting": "second compound 0.1 µM, first compound 1 µM", "value": 74.4, "unit": "%"},
      {"measurement": "viability, T/C", "setting": "second compound 0.1 µM, first compound 3.16 µM", "value": 64, "unit": "%"},
      {"measurement": "viability, T/C", "setting": "second compound 0.1 µM, first compound 10 µM", "value": 51.5, "unit": "%"},
      {"measurement": "viability, T/C", "setting": "second compound 0.316 µM, first compound 0.0316 µM", "value": 102, "unit": "%"},
      {"measurement": "viability, T/C", "setting": "second compound 0.316 µM, first compound 0.1 µM", "value": 91.6, "unit": "%"},
      {"measurement": "viability, T/C", "setting": "second compound 0.316 µM, first compound 0.316 µM", "value": 84, "unit": "%"},
      {"measurement": "viability, T/C", "setting": "second compound 0.316 µM, first compound 1 µM", "value": 79, "unit": "%"},
      {"measurement": "viability, T/C", "setting": "second compound 0.316 µM, first compound 3.16 µM", "value": 65.9, "unit": "%"},
      {"measurement": "viability, T/C", "setting": "second compound 0.316 µM, first compound 10 µM", "value": 48.6, "unit": "%"},
      {"measurement": "viability, T/C", "setting": "second compound 1 µM, first compound 0.0316 µM", "value": 98.4, "unit": "%"},
      {"measurement": "viability, T/C", "setting": "second compound 1 µM, first compound 0.1 µM", "value": 95.1, "unit": "%"},
      {"measurement": "viability, T/C", "setting": "second compound 1 µM, first compound 0.316 µM", "value": 92.1, "unit": "%"},
      {"measurement": "viability, T/C", "setting": "second compound 1 µM, first compound 1 µM", "value": 81.1, "unit": "%"},
      {"measurement": "viability, T/C", "setting": "second compound 1 µM, first compound 3.16 µM", "value": 68.3, "unit": "%"},
      {"measurement": "viability, T/C", "setting": "second compound 1 µM, first compound 10 µM", "value": 50.3, "unit": "%"},
      {"measurement": "viability, T/C", "setting": "second compound 3.16 µM, first compound 0.0316 µM", "value": 99.4, "unit": "%"},
      {"measurement": "viability, T/C", "setting": "second compound 3.16 µM, first compound 0.1 µM", "value": 98, "unit": "%"},
      {"measurement": "viability, T/C", "setting": "second compound 3.16 µM, first compound 0.316 µM", "value": 88.9, "unit": "%"},
      {"measurement": "viability, T/C", "setting": "second compound 3.16 µM, first compound 1 µM", "value": 75.7, "unit": "%"},
      {"measurement": "viability, T/C", "setting": "second compound 3.16 µM, first compound 3.16 µM", "value": 70.1, "unit": "%"},
      {"measurement": "viability, T/C", "setting": "second compound 3.16 µM, first compound 10 µM", "value": 54.5, "unit": "%"},
      {"measurement": "viability, T/C", "setting": "second compound 10 µM, first compound 0.0316 µM", "value": 103, "unit": "%"},
      {"measurement": "viability, T/C", "setting": "second compound 10 µM, first compound 0.1 µM", "value": 90.5, "unit": "%"},
      {"measurement": "viability, T/C", "setting": "second compound 10 µM, first compound 0.316 µM", "value": 105, "unit": "%"},
      {"measurement": "viability, T/C", "setting": "second compound 10 µM, first compound 1 µM", "value": 87.3, "unit": "%"},
      {"measurement": "viability, T/C", "setting": "second compound 10 µM, first compound 3.16 µM", "value": 67.5, "unit": "%"},
      {"measurement": "viability, T/C", "setting": "second compound 10 µM, first compound 10 µM", "value": 55.8, "unit": "%"}
    ]}
  ]
}
